Laboratory results taken from patent publication US20240189319A1, “RIFAMYCIN ANALOGS IN COMBINATION WITH VANCOMYCIN AND USES THEREOF” (Regeneron Pharmaceuticals, Inc, priority 2021, published 2024).

Columns and labels:
[1] = system: S. aureus MRSA strain NRS384; experiment: S. aureus IV advanced disseminated infection mouse model, strain NRS384 (kidney burden); assay type: in vivo, Staphylococcus aureus; settings: for kidney burden reduction in combination with vancomycin, compared with rifampicin plus vancomycin (in words): Example 3B versus Example 3A; for kidney burden, combination with vancomycin versus vancomycin alone (in words): 0.01-0.25 mg/kg + vancomycin
Procedure: (§1) To test the efficacy of rifamycin analogs (I) and (II) according to the disclosure in combination therapy with vancomycin in vivo, a 4-day intravenous disseminated infection model was utilized. S. aureus MSRA strain NRS384 or N315, where indicated, was grown overnight in tryptic soy broth (TSB) and sub-cultured to mid-logarithmic phase. Bacteria were then washed twice with PBS and resuspended in PBS at a concentration of 1.5×10^8 cfu/mL NRS384 or 6.0×10^8 N315. Six-week-old Balb/c mice were then infected intravenously through the tail vein with 100 uL of the bacterial suspension, for a final infectious dose of 1.5×10^7 cfu/mouse NRS384 or 6.0×10^7 N315. From one to three days post infection, indicated mice were treated with 110 mg/kg vancomycin subcutaneously twice daily where indicated. Rifamycin analogs (I) or (II) were administered subcutaneously at the indicated dose two days after infection. Mice were monitored for weight loss and body conditioning score throughout the infection. At four days post infection, mice were euthanized, and the S. aureus kidney burden was quantified by tissue homogenization followed by enumeration of colony forming units through serial dilution in PBS and plating onto trypticase soy agar plates. Data points represent the kidney burden from individual mice tested.
In this experiment, mice infected with S. aureus MSRA strain NRS384 were treated with vancomycin alone (control) or vancomycin in combination with 0.002 mg/kg to 25 mg/kg rifampicin, a commercially-available rifamycin analog control.
In this experiment, mice infected with S. aureus MSRA strain NRS384 were treated with vancomycin alone (control) or vancomycin in combination with 0.01-0.25 mg/kg rifamycin analog (I) or 0.01-0.25 mg/kg rifamycin analog (II).
In this experiment, mice infected with S. aureus MSRA strain NRS384 were treated with 25 mg/kg rifampicin (control) or 0.002-0.25 mg/kg rifamycin analog (II) alone or in combination with vancomycin, with vancomycin alone as a control.

[2] = system: S. aureus MRSA strain N315; experiment: S. aureus IV advanced disseminated infection mouse model, strain N315 (kidney burden); assay type: in vivo, Staphylococcus aureus; settings: for kidney burden relative to limit of detection (in words) / Median cfu/kidney pair / bacterial load relative to limit of detection (in words): Example 3D; for Median cfu/kidney pair: day 4, LOD 250
Procedure: as §1
In this experiment, mice infected with S. aureus MSRA strain N315 were treated with 25 mg/kg rifampicin (control), or 0.01-0.75 mg/kg rifamycin analog (I), or 0.002-0.25 mg/kg rifamycin analog (II) in combination with vancomycin, with vancomycin alone as a control.

[3] = Example 3B, dose 0.01 mg/kg sc day 2 + vancomycin 110 mg/kg twice daily, day 4, LOD 250
[4] = Example 3B, dose 0.05 mg/kg sc day 2 + vancomycin 110 mg/kg twice daily, day 4, LOD 250
[5] = Example 3B, dose 0.25 mg/kg sc day 2 + vancomycin 110 mg/kg twice daily, day 4, LOD 250
[6] = dose 0.01 mg/kg + vancomycin 110 mg/kg twice daily
[7] = dose 0.05 mg/kg + vancomycin 110 mg/kg twice daily
[8] = dose 0.25 mg/kg + vancomycin 110 mg/kg twice daily

With `CO[C@H]1/C=C/O[C@@]2(C)Oc3c(C)c(O)c4c(=O)c(c5oc6cc(OCCN(C)C)cc(O)c6nc-5c4c3C2=O)NC(=O)/C(C)=C\C=C\[C@H](C)[C@H](O)[C@@H](C)[C@@H](O)[C@@H](C)[C@H](OC(C)=O)[C@@H]1C` [Rifamycin analog (I)] the “kidney burden reduction in combination with vancomycin, compared with rifampicin plus vancomycin (in words)” value [1] was “effective at reducing S. aureus kidney burden at lower doses than rifampicin”, the “kidney burden, combination with vancomycin versus vancomycin alone (in words)” value ([1]; Example 3B) was “further reduced kidney burden” and the Median cfu/kidney pair [1, 3] was 5.88E+04 cfu/kidney pair. For the same compound, the Median cfu/kidney pair [1, 4] was 5.75E+03 cfu/kidney pair, the Median cfu/kidney pair [1, 5] was 2.50E+02 cfu/kidney pair and the “kidney burden relative to limit of detection (in words)” value ([2]; 0.01-0.75 mg/kg + vancomycin) was “at or near the limit of detection”. The Median cfu/kidney pair [2, 6] was 2.50E+02 cfu/kidney pair, the Median cfu/kidney pair [2, 7] was 2.50E+02 cfu/kidney pair and the Median cfu/kidney pair [2, 8] was 2.50E+02 cfu/kidney pair. For the same compound, the Median cfu/kidney pair ([2]; dose 0.75 mg/kg + vancomycin 110 mg/kg twice daily) was 2.50E+02 cfu/kidney pair and the “bacterial load relative to limit of detection (in words)” value (from here on “bacterial load relative to limit”) ([2]; dose of 0.01 mg/kg in combination with vancomycin) was “below the limit of detection”.
In the case of Vancomycin [reference compound], the Median cfu/kidney pair ([1]; Example 3A, Balb/c mice, vancomycin alone 110 mg/kg sc twice daily days 1-3, day 4 post infection, limit of detection 250) is reported as 1.30E+06 cfu/kidney pair, the Median cfu/kidney pair ([1]; Example 3B, vancomycin alone 110 mg/kg sc twice daily, day 4, LOD 250) is reported as 3.50E+06 cfu/kidney pair and the “efficacy when rifamycin analog (II) and vancomycin are used in combination (in words)” value ([1]; Example 3C) is reported as “enhanced”. The Median cfu/kidney pair ([1]; Example 3C, vancomycin alone 110 mg/kg sc twice daily, day 4, LOD 250) was 1.13E+06 cfu/kidney pair, the “reduction in S. aureus kidney burden” value ([1]; vancomycin treatment alone (Examples 3A, 3B, 3C)) was 2-3 log and the Median cfu/kidney pair ([2]; vancomycin alone 110 mg/kg sc twice daily) was 3.88E+04 cfu/kidney pair. The “reduction in S. aureus kidney burden” value ([2]; vancomycin treatment alone (Example 3D)) was about 4 log.
`CO[C@H]1/C=C/O[C@@]2(C)Oc3c(C)c(O)c4c(=O)c(c5oc6cc(OCCN(C)C)ccc6nc-5c4c3C2=O)NC(=O)/C(C)=C\C=C\[C@H](C)[C@H](O)[C@@H](C)[C@@H](O)[C@@H](C)[C@H](OC(C)=O)[C@@H]1C` [Rifamycin analog (II)] was tested, and the “reduction in S. aureus kidney burden” value ([1]; 0.25 mg/kg as a monotherapy (Example 3C)) was about 3 logs, the “kidney burden reduction in combination with vancomycin, compared with rifampicin plus vancomycin (in words)” value [1] was “effective at reducing S. aureus kidney burden at lower doses than rifampicin” and the “kidney burden, combination with vancomycin versus vancomycin alone (in words)” value ([1]; Example 3B) was “further reduced kidney burden”. It also gave a Median cfu/kidney pair [1, 3] of 2.50E+02 cfu/kidney pair, a Median cfu/kidney pair [1, 4] of 2.50E+02 cfu/kidney pair and a Median cfu/kidney pair [1, 5] of 3.38E+05 cfu/kidney pair. The “S. aureus kidney burden relative to limit of detection (in words)” value ([1]; Example 3B, lowest tested dose 0.01 mg/kg + vancomycin) was “below the limit of detection”, the “combination with vancomycin versus monotherapies in reducing bacterial burden (in words)” value ([1]; Example 3C) was “more effective than either monotherapy” and the “efficacy when rifamycin analog (II) and vancomycin are used in combination (in words)” value ([1]; Example 3C) was “enhanced”. It also gave a Median cfu/kidney pair ([1]; Example 3C, dose 0.002 mg/kg + vancomycin 110 mg/kg twice daily, day 4, LOD 250) of 2.50E+02 cfu/kidney pair, a Median cfu/kidney pair ([1]; Example 3C, dose 0.002 mg/kg, without vancomycin, day 4, LOD 250) of 2.75E+07 cfu/kidney pair and a Median cfu/kidney pair ([1]; Example 3C, dose 0.01 mg/kg + vancomycin 110 mg/kg twice daily, day 4, LOD 250) of 2.50E+02 cfu/kidney pair. The Median cfu/kidney pair ([1]; Example 3C, dose 0.01 mg/kg, without vancomycin, day 4, LOD 250) was 5.13E+06 cfu/kidney pair, the Median cfu/kidney pair ([1]; Example 3C, dose 0.05 mg/kg + vancomycin 110 mg/kg twice daily, day 4, LOD 250) was 2.50E+02 cfu/kidney pair and the Median cfu/kidney pair ([1]; Example 3C, dose 0.05 mg/kg, without vancomycin, day 4, LOD 250) was 1.52E+08 cfu/kidney pair. The Median cfu/kidney pair ([1]; Example 3C, dose 0.25 mg/kg + vancomycin 110 mg/kg twice daily, day 4, LOD 250) was 3.75E+02 cfu/kidney pair, the Median cfu/kidney pair ([1]; Example 3C, dose 0.25 mg/kg, without vancomycin (monotherapy), day 4, LOD 250) was 2.13E+04 cfu/kidney pair and the “bacterial load relative to limit” value ([1]; Example 3C, low doses including 0.05 and 0.002 mg/kg, in combination with vancomycin) was “below the limit of detection”. For the same compound, the “kidney burden relative to limit of detection (in words)” value ([2]; 0.002-0.25 mg/kg + vancomycin) was “at or near the limit of detection”, the Median cfu/kidney pair ([2]; dose 0.002 mg/kg + vancomycin 110 mg/kg twice daily) was 2.50E+02 cfu/kidney pair and the Median cfu/kidney pair [2, 6] was 2.50E+02 cfu/kidney pair. For the same compound, the Median cfu/kidney pair [2, 7] was 6.25E+02 cfu/kidney pair, the Median cfu/kidney pair [2, 8] was 2.50E+02 cfu/kidney pair and the “bacterial load relative to limit” value ([2]; dose of 0.002 mg/kg in combination with vancomycin) was “below the limit of detection”.
For `CO[C@H]1/C=C/O[C@@]2(C)Oc3c(C)c(O)c4c(O)c(c(/C=N/N5CCN(C)CC5)c(O)c4c3C2=O)NC(=O)/C(C)=C\C=C\[C@H](C)[C@H](O)[C@@H](C)[C@@H](O)[C@@H](C)[C@H](OC(C)=O)[C@@H]1C` [Rifampicin, reference compound], the Median cfu/kidney pair ([1]; Example 3A, dose 0.002 mg/kg + vancomycin 110 mg/kg twice daily, day 4, LOD 250) was 3.38E+06 cfu/kidney pair, the Median cfu/kidney pair ([1]; Example 3A, dose 0.01 mg/kg + vancomycin 110 mg/kg twice daily, day 4, LOD 250) was 3.00E+06 cfu/kidney pair and the Median cfu/kidney pair ([1]; Example 3A, dose 0.05 mg/kg + vancomycin 110 mg/kg twice daily, day 4, LOD 250) was 2.75E+06 cfu/kidney pair. The Median cfu/kidney pair ([1]; Example 3A, dose 0.25 mg/kg + vancomycin 110 mg/kg twice daily, day 4, LOD 250) was 2.50E+02 cfu/kidney pair, the Median cfu/kidney pair ([1]; Example 3A, dose 25 mg/kg + vancomycin 110 mg/kg twice daily, day 4, LOD 250) was 2.50E+02 cfu/kidney pair and the Median cfu/kidney pair ([1]; Example 3C, dose 25 mg/kg + vancomycin 110 mg/kg twice daily, day 4, LOD 250) was 2.50E+02 cfu/kidney pair. For the same compound, the Median cfu/kidney pair ([1]; Example 3C, dose 25 mg/kg, without vancomycin, day 4, LOD 250) was 7.07E+08 cfu/kidney pair and the Median cfu/kidney pair ([2]; dose 25 mg/kg + vancomycin 110 mg/kg twice daily) was 2.50E+02 cfu/kidney pair.
